# Measurements published in patent US6693123B2 (University of Pittsburgh, priority 1995, dated 2004).
# Counter-ions that a name gives are not always drawn.
# Biological target: T1, Rat brain protein farnesyltransferase (Rattus norvegicus, UniProt Q02293+Q04631)
# T1 construct: The enzyme is purified according to Reiss, Y., et al., Cell, 62: 81-88 (1990), utilizing steps one through three; from tissue; host or cells: rat brain
# Test: In vitro inhibition of protein farnesyltransferase, Amersham scintillation proximity assay with biotin-K Ras B fragment
# Assay type: biochemical
# Details: Inhibition of farnesyltransferase; compound at 1 × 10^−5 M (Table 1)
row,inhibition at 10 µM [%],Structure (SMILES)
1,> 50,"CSCC[C@H](NC(=O)c1ccc(NCc2cnc(-c3ccccc3)[nH]2)cc1-c1ccccc1)C(=O)O [Example 382, 4-[N-(1-H-2-Phenylimidazole-4-yl)methylamino-2-phenylbenzoyl]-methionine]"
2,> 50,"CSCC[C@H](NC(=O)c1ccc(NCc2nc[nH]c2C)cc1-c1ccccc1)C(=O)O [Example 383, 4-[N-(5-Methyl-1-H-imidazole-4-yl)-methylene-(amino-2-phenylbenzol)]methionine]"
3,> 50,"CC(C)C[C@H](NC(=O)c1ccc(NCc2c[nH]cn2)cc1-c1ccccc1)C(=O)O [Example 387, 4-[N-(1H-Imidazol-4-yl)methylamino-2-phenylbenzoyl]leucine]"
4,> 50,"CC(C)C[C@H](NC(=O)c1ccc(NCc2cnc[nH]2)cc1-c1cccc2ccccc12)C(=O)O [Example 388, 4-[N-(1H-Imidazol-4-yl)methylamino-2-(1-naphthyl)benzoyl]leucine]"
5,> 50,"CC(C)C[C@H](NC(=O)c1ccc(NCc2cccnc2)cc1-c1ccccc1)C(=O)O [Example 390, 5-[N-(3-Pyridinyl)methylamino-2-phenylbenzoyl]leucine]"

# Same assay, conditions: Inhibition of farnesyltransferase; compound at 1 × 10^−6 M (Table 2)
row,Structure (SMILES),% inhibition at 1 × 10^−6 M [%]
1,"CSCC[C@H](NC(=O)c1ccc(NC(=O)c2cnccc2C(F)(F)F)cc1-c1ccccc1C)C(=O)[O-].[Li+] [Example 481, N-[4-N-(4-Trifluoromethylnicotinoyl)amino-2-(2-methylphenyl)benzoyl]methionine Lithium Salt]",95
2,"CSCC[C@H](NC(=O)c1ccc(CN(C(=O)c2ccccc2)c2cccnc2)cc1-c1ccccc1C)C(=O)O [Example 569, N-[4-N-Benzoyl-N-pyrid-3-ylaminomethyl-2-(2-methylphenyl)benzoyl]methionine]",91

# Same assay, conditions: Inhibition of farnesyltransferase; compound at 1 × 10^−6 M (Table 2); read-out: % inhibition at 1 × 10^−6 M
row,Structure (SMILES),inhibition at 1 µM [%]
1,"CSCC[C@H](NC(=O)c1ccc(CN(Cc2ccccc2)c2cccnc2)cc1-c1ccccc1C)C(=O)OCOC(C)=O [Example 499, Acetoxymethyl N-[4-N-Benzyl-N-pyridin-3-ylaminomethyl-2-(2-methylphenyl)benzoyl]methionine]",98
2,"CSCC[C@H](NC(=O)c1ccc(CN(Cc2ccccc2)c2cccnc2)cc1-c1ccccc1C)C(=O)OCOC(=O)C(C)(C)C [Example 500, Pivaloyloxymethyl N-[4-N-Benzyl-N-pyridin-3-ylaminomethyl-2-(2-methylphenyl)benzoyl]methionine]",98
3,"CCN(CC)C(=O)COC(=O)[C@H](CCSC)NC(=O)c1ccc(CN(Cc2ccccc2)c2cccnc2)cc1-c1ccccc1C [Example 501, N,N-Diethylaminocarbonylmethyl N-[4-N-benzyl-N-pyridin-3-ylaminomethyl-2-(2-methylphenyl)benzoyl]methionine]",84

# Next, values leading:
row,inhibition at 1 µM [%],Structure (SMILES)
1,72,CSCC[C@H](NC(=O)c1cc(-c2ccc(C)cc2)c(COc2cccnc2)cc1-c1ccccc1C)C(=O)O [Example 343]
2,95,CSCC[C@H](NC(=O)c1cc(Cc2ccccc2)c(COc2cccnc2)cc1-c1ccccc1C)C(=O)O [Example 344]
3,91,CSCC[C@H](NC(=O)c1cc(-c2cc(Cl)cc(Cl)c2)c(COc2cccnc2)cc1-c1ccccc1C)C(=O)O [Example 345]
4,98,CSCC[C@H](NC(=O)c1cc(-c2cccs2)c(COc2cccnc2)cc1-c1ccccc1C)C(=O)O [Example 346]
5,> 50,"CSCC[C@H](NC(=O)c1ccc(NCc2ncc[nH]2)cc1-c1ccccc1C)C(=O)O [Example 386, 4-[N-(1-H-Imidazole-2-yl)methylamino-2-(2-methylphenyl)benzoyl]methionine]"
6,98,"CSCC[C@H](NC(=O)c1ccc(CN(Cc2ccccc2)c2cccnc2)cc1-c1ccccc1C)C(=O)O [Example 407, [4-(N-Benzyl-N-3-pyridylaminomethyl)-2-(2-methylphenyl)benzoyl]methionine]"
7,41,Cc1ccccc1-c1cc(/C=C/c2cnc3ccccc3c2)ccc1C(=O)N[C@@H](CC[S+](C)[O-])C(=O)O (stereo partly shown) [Example 488]
8,35,"CSCC[C@H](NC(=O)c1ccc(/C=C/c2cccnc2)cc1-c1ccccc1C)C(N)=O [Example 796, N-[4-(2-Pyrid-3-ylethen-1-yl)-2-(2-methylphenyl)benzoyl]methioninamide]"
9,35,"CSCC[C@H](NC(=O)c1ccc(/C=C/c2cccnc2)cc1-c1ccccc1C)C(=O)NC(=O)c1ccccc1 [Example 797, Benzoyl N-[4-(2-Pyrid-3-ylethen-1-yl)-2-(2-methylphenyl)benzoyl]methioninamide]"

# Same assay, conditions: Inhibition of farnesyltransferase; compound at 1 × 10^−7 M (Table 3); read-out: % inhibition at 1 × 10^−7 M
row,Structure (SMILES),inhibition at 0.1 µM [%]
1,"CSCC[C@H](NC(=O)c1ccc(/C=C/c2cnccc2C(O)C2CCCCC2)cc1-c1ccccc1C)C(=O)O (stereo partly shown) [Example 486, N-[4-(2-(4-(1-Cyclohexyl)hydroxmethyl)pyrid-3-ylethen-1-yl)-2-(2-methylphenyl)benzoyl]methionine Lithium Salt]",97
2,"CSCC[C@@H](C(=O)O)N(C)C(=O)c1ccc(CN(Cc2ccccc2)c2cccnc2)cc1-c1ccccc1C [Example 602, N-[4-(N-Benzyl-N-pyrid-3-ylaminomethyl)-2-(2-methylphenyl)benzoyl]-N-methylmethionine]",97

# Continued, values first:
row,inhibition at 0.1 µM [%],Structure (SMILES)
1,96,"CSCC[C@H](NC(=O)c1ccc(/C=C/c2cnccc2C2(O)CCCCC2)cc1-c1ccccc1C)C(=O)O [Example 482, N-[4-(2-(4-Cyclohexan-1-ol-1-yl)-pyrid-3-ylethen-1-yl)-2-(2-methylphenyl)benzoyl]methionine Lithium Salt]"
2,95,"CSCC[C@H](NC(=O)c1ccc(/C=C/c2cnccc2C(=O)c2ccccc2)cc1-c1ccccc1C)C(=O)O [Example 483, N-[4-(2-(4-Benzoyl)pyrid-3-ylethen-1-yl)-2-(2-methylphenyl)benzoyl]methionine Lithium Salt]"
3,97,"CSCC[C@H](NC(=O)c1ccc(/C=C/c2cnccc2C(O)c2ccccc2)cc1-c1ccccc1C)C(=O)O (stereo partly drawn) [Example 484, N-[4-(2-(4-α-Hydroxybenzyl)pyrid-3-ylethen-1-yl)-2-(2-methylphenyl)benzoyl]methionine Lithium Salt]"
4,96,"CSCC[C@H](NC(=O)c1ccc(CCc2cnccc2C(O)c2ccccc2)cc1-c1ccccc1C)C(=O)O (stereo partly drawn) [Example 485, N-[4-(2-(4-α-Hydroxybenzyl)pyrid-3-ylethyl)-2-(2-methylphenyl)benzoyl]methionine Lithium Salt]"
5,92,"CSCC[C@H](NC(=O)c1ccc(CN(c2cccnc2)S(=O)(=O)c2ccccc2)cc1-c1ccccc1C)C(=O)O [Example 570, N-[4-N-Phenylsulfonyl-N-pyrid-3-ylaminomethyl-2-(2-methylphenyl)benzoyl]methionine]"

# Same assay, conditions: Inhibition of farnesyltransferase; compound at 1 × 10^−8 M (Table 4); read-out: % inhibition at 1 × 10^−8 M
row,inhibition at 0.01 µM [%],Structure (SMILES)
1,91,"CSCC[C@H](NC(=O)c1ccc(NCc2c[nH]cn2)cc1-c1ccccc1C)C(=O)O [Example 384, 4-[N-(1-H-Imidazole-4-yl)methylamino-2-(2-methylphenylbenzoyl)]methionine]"
2,50,COc1ccccc1-c1cc(NCc2cnc[nH]2)ccc1C(=O)N[C@@H](CC(C)C)C(=O)O [Example 397]
3,66,"CSCC[C@H](NC(=O)c1ccc(COc2cccnc2)cc1-c1ccccc1)C(=O)NS(=O)(=O)N1CCN(C)CC1 [Example 401, [4-(3-Pyridyloxymethyl)-2-phenylbenzoyl]methionine 4-Methylpiperazinesulfonimide]"
4,> 95,CSCC[C@H](NC(=O)c1ccc(CN(CC2CCCCC2)c2cccnc2)cc1-c1ccccc1C)C(=O)O [Example 408]
5,84,"CSCC[C@H](NC(=O)c1ccc(CN(Cc2ccccc2)c2cccnc2)cc1-c1ccccc1C(F)(F)F)C(=O)O [Example 409, [4-(N-Benzyl-N-3-pyridylaminomethyl)-2-(2-trifluoromethylphenyl)benzoyl]methionine]"
6,94,"CSCC[C@H](NC(=O)c1ccc(CN(Cc2ccccc2)c2cncc(F)c2)cc1-c1ccccc1C)C(=O)O [Example 410, [4-(N-Benzyl-N-3-(5-fluorolpyridyl)aminomethyl)-2-(2-methylphenyl)benzoyl]methionine]"
7,94,"CSCC[C@H](NC(=O)c1ccc(COc2cccnc2)cc1-c1ccccc1)C(=O)NS(=O)(=O)N1CCSCC1 [Example 603, Thiomorpholinesulfonyl N-2-[4-(Pyrid-3-yloxymethyl)-2-phenylbenzoyl]amino-4-methylthiobutanamide]"
8,95,"CC[C@H](NC(=O)c1ccc(COc2cccnc2)cc1-c1ccccc1)C(=O)O [Example 760, (2S)-2-N-[4-(3-Pyridyloxymethyl)-2-phenylbenzoyl]aminobutanoic Acid]"

# Same assay, conditions: read-out: % inhibition at 1 × 10^−6 M
row,Structure (SMILES),inhibition at 1 µM [%]
1,CSCC[C@H](NC(=O)c1cc(I)c(COc2cccnc2)cc1-c1ccccc1C)C(=O)O [Example 347],95
2,"CSCC[C@H](NC(=O)Nc1ccc(COc2cccnc2)cc1-c1ccccc1)C(=O)O [Example 348, [4-(3-Pyridyloxymethyl)-2-(phenyl)phenylaminocarbonyl]methionine]",66
3,"CSCC[C@H](NC(=O)c1ccc(C(=O)N(Cc2ccccc2)c2cccnc2)cc1-c1ccccc1C)C(=O)O [Example 451, N-[4-(N-3-Pyridyl-N-benzyl)carbonyl-2-(2-methylphenyl)benzoyl]methionine]",85
4,CNCCc1cnc[nH]1 [Example 722],96

# Same assay, conditions: read-out: % inhibition at 1 × 10^−7 M
row,Structure (SMILES),inhibition at 0.1 µM [%]
1,"CSCC[C@H](NC(=O)c1ccc(CCc2cncc3ccccc23)cc1-c1ccccc1C)C(=O)O [Example 492, N-[4-(2-Isoquinolin-4-ylethyl)-2-(2-methylphenyl)benzoyl]methionine Lithium Salt]",95
2,"CSCC[C@H](NC(=O)c1ccc(CCc2cncc(Cc3ccccc3)c2)cc1-c1ccccc1C)C(=O)O [Example 799, Lithium Salt]",96
